Patent US20220282217A1, “COMPOSITIONS AND METHODS FOR PREPARING T CELL COMPOSITIONS AND USES THEREOF” (priority 2019, published 2022)
Where a SMILES comes first, the peptide text is derived from it.

The compounds below were run against HLA-A02.01 (Homo sapiens, UniProt P04439, D140Y/D185E/D98H/E176V/E277Q/G131W/G231S/I119V/I121R/I166T/I218V/L300P/L318F/N151K/N90K/P208A/P217A/Q86G/Q94H/R138H/R169H/T345S) (assay: Class I MHC peptide binding affinity (displacement of radiolabeled reference peptide)). Conditions: Observed Affinity (IC50; (nM)), allele A02.01.
Method in brief: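 Displacement format in which varying amounts of peptide compete for 2 days with a radiolabeled reference ligand prebound to class I MHC, residual complex-associated label being measured after gel-filtration separation.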

| SMILES | IC50 |
| --- | --- |
| CC[C@H](C)[C@H](N)C(=O)N[C@H](C(=O)N[C@@H](CCC(=O)O)C(=O)N[C@@H](Cc1ccccc1)C(=O)N[C@@H](CCSC)C(=O)N[C@H](C(=O)N[C@@H](Cc1ccc(O)cc1)C(=O)NCC(=O)N[C@@H](CC(N)=O)C(=O)N[C@@H](CC(C)C)C(=O)O)[C@@H](C)O)[C@@H](C)CC (H-IIEFMTYGNL-OH; N-terminus and C-terminus assumed) | 9700 nM |

Same assay, conditions: allele A02.01; read-out: Observed Affinity (IC50; (nM))

| SMILES | IC50 |
| --- | --- |
| CC(C)C[C@H](NC(=O)[C@H](C)NC(=O)[C@H](Cc1ccccc1)NC(=O)[C@H](CO)NC(=O)[C@@H](NC(=O)[C@H](CCC(N)=O)NC(=O)[C@@H](NC(=O)[C@@H](NC(=O)[C@H](CCC(N)=O)NC(=O)[C@@H](N)CC(C)C)C(C)C)[C@@H](C)O)[C@@H](C)O)C(=O)O [LQVTQTSFAL] (H-LQVTQTSFAL-OH; N-terminus and C-terminus assumed) | 718 nM |
| CC(C)C[C@H](NC(=O)[C@H](CCCNC(=N)N)NC(=O)[C@@H](NC(=O)[C@@H](N)CC(C)C)C(C)C)C(=O)N[C@@H](CO)C(=O)N[C@@H](CO)C(=O)N[C@@H](CS)C(=O)N[C@H](C(=O)N1CCC[C@H]1C(=O)N[C@H](C(=O)O)C(C)C)C(C)C (H-LVRLSSCVPV-OH; N-terminus and C-terminus assumed) | 1240 nM |
| CC(C)C[C@H](NC(=O)[C@@H](N)C(C)C)C(=O)N[C@H](C(=O)N[C@H](C(=O)N[C@H](C(=O)N[C@@H](CO)C(=O)N[C@H](C(=O)N[C@@H](CC(=O)O)C(=O)N[C@H](C(=O)O)C(C)C)[C@@H](C)O)[C@@H](C)O)C(C)C)[C@@H](C)O (H-VLTVTSTDV-OH) | 295 nM |
| CC(C)C[C@H](NC(=O)CNC(=O)[C@H](Cc1c[nH]c2ccccc12)NC(=O)[C@H](CC(=O)O)NC(=O)[C@H](CCCCN)NC(=O)CNC(=O)[C@H](CCC(N)=O)NC(=O)[C@@H](NC(=O)[C@@H](N)Cc1ccccc1)C(C)C)C(=O)O | 34 nM |
| CSCC[C@H](NC(=O)[C@H](Cc1c[nH]cn1)NC(=O)[C@@H](NC(=O)[C@H](CC(C)C)NC(=O)[C@@H](NC(=O)[C@@H]1CCCN1C(=O)[C@H](C)NC(=O)[C@H](CC(C)C)NC(=O)[C@H](C)N)[C@@H](C)O)[C@@H](C)O)C(=O)N[C@@H](CC(C)C)C(=O)O (H-ALAPTLTHML-OH; N-terminus and C-terminus assumed) | 39 nM |
| CC[C@H](C)[C@H](N)C(=O)N[C@H](C(=O)N[C@@H](CO)C(=O)N[C@@H](CCCNC(=N)N)C(=O)N[C@H](C(=O)N[C@@H](CC(C)C)C(=O)N[C@@H](CC(C)C)C(=O)N[C@@H](CC(C)C)C(=O)N[C@H](C(=O)O)C(C)C)[C@@H](C)O)C(C)C (H-IVSRTLLLV-OH; N-terminus and C-terminus assumed) | 12.7 nM |

Other lines, results leading:

| IC50 | SMILES |
| --- | --- |
| 324 nM | CSCC[C@H](NC(=O)[C@H](CCCNC(=N)N)NC(=O)[C@H](CCCNC(=N)N)NC(=O)[C@H](Cc1ccc(O)cc1)NC(=O)[C@H](CC(=O)O)NC(=O)[C@H](Cc1c[nH]c2ccccc12)NC(=O)[C@H](CO)NC(=O)[C@H](CO)NC(=O)[C@H](CC(C)C)NC(=O)[C@@H](N)Cc1ccccc1)C(=O)O (H-FLSSWDYRRM-OH; N-terminus and C-terminus assumed) |
| 1090 nM | CC[C@H](C)[C@H](N)C(=O)N[C@H](C(=O)N[C@@H](CCC(=O)O)C(=O)N[C@@H](Cc1ccc(O)cc1)C(=O)N[C@@H](CS)C(=O)N[C@@H](Cc1ccccc1)C(=O)N[C@@H](Cc1ccc(O)cc1)C(=O)NCC(=O)N[C@@H](CC(=O)O)C(=O)N[C@@H](CC(C)C)C(=O)O)[C@@H](C)CC (H-IIEYCFYGDL-OH; N-terminus and C-terminus assumed) |
| 677 nM | CC(C)C[C@H](NC(=O)[C@@H](N)CC(C)C)C(=O)N[C@@H](CCC(N)=O)C(=O)N[C@H](C(=O)N[C@H](C(=O)N[C@@H](CCC(N)=O)C(=O)N[C@H](C(=O)N[C@@H](CO)C(=O)N[C@@H](Cc1ccccc1)C(=O)N[C@@H](C)C(=O)O)[C@@H](C)O)[C@@H](C)O)C(C)C (H-LLQVTQTSFA-OH; N-terminus and C-terminus assumed) |
